This note sets out measurements from patent publication US20040097734A1, “Aryl- and heteroarylcarbonylpiperazines and their use for the treatment of benign and malignant oncoses” (priority 2002, published 2004).

Structures are written as SMILES. Converted amounts (≈) assume the structure as drawn. Like-named read-outs stand apart in the source and are kept apart here. Some results are limits rather than exact numbers.

For data set [1], the system named is ovarian adenocarcinoma cell line SKOV-3. Nature of the data set: XTT proliferation assay, SKOV-3. Format: cell-based. The note with it: Homo sapiens, SK-OV-3; SKOV-3 cells, 45 h incubation; read-out: XTT proliferation assay, EC50, SKOV3. An excerpt: (§1) The substances according to the invention were investigated for their antiproliferative activity in a proliferation test on established tumor cell lines. The test used determines the cellular dehydrogenase activity and makes possible a determination of the cell vitality and indirectly the cell count. The cell lines used are the human cervical carcinoma cell line KB/HeLa, (ATCC CCL17), the ovarian adenocarcinoma cell line SKOV-3 (ATCC HTB77), the human glioblastoma cell line SF-268 (NCI 503138) and the lung carcinoma cell line NCI-H460 (NCI 503473). In addition, for the investigation of the cell cycle-specific action of the substance, an RKOp27 cell system was used (M. Schmidt et al. Oncogene 19(20):2423-9, 2000). RKO is a human colon carcinoma cell line, in which the cell cycle inhibitor p27^kip1 induced by means of the ecdysone expression system is expressed and can be led to a cell cycle arrest specifically in […]. A nonspecifically acting substance inhibits the proliferation independently of weather the RKO cell is or is not arrested in G1 or G2. Cell cycle-specific substances such as, for example, tubulin inhibitors are, however, only cytotoxic if cells are not arrested and the cell cycle is passed through. In table 1, the cytotoxic and/or growth-inhibiting activities of the compound described with/without expression of p27^kip1 are shown.
(§2) The adherently growing tumor cell lines KB/HeLa, SKOV-3, SF-268 and NCI-H460 were cultured under standard conditions in a fumigation incubator at 37° C., 5% CO2 and 95% atmospheric humidity. On experimental day 1, the cells are detached using trypsin/EDTA and pelleted by centrifugation. Subsequently, the cell pellet is resuspended in the respective culture medium at the corresponding cell count and reacted in a 96-well microtiter plate. The plates are then cultured overnight in the fumigation incubator. The test substances are prepared as 1 mg/ml stock solutions in DMSO and diluted to the appropriate concentrations on experimental day 2 using culture medium. The substances in culture medium are then added to the cells and incubated in the fumigation incubator for 45h. As a control, cells which are not treated with test substance are used. For the XTT assay, 1 mg/ml of XTT (sodium 3′-[1-(phenylaminocarbonyl)-3,4-tetrazolium]-bis(4-methoxy-6-nitro)benzenesulfonic acid) is dissolved in RPMI-1640 medium without Phenol Red. Additionally, a 0.383 mg/ml PMS (N-methyldibenzopyrazine methylsulfate) solution in phosphate-buffered saline solution (PBS) is prepared. On experimental day 4, 75 μl/well of XTT-PMS mixture is pipetted onto the cell plates which in the meantime have been incubated with the test substances for 45 h. For this, shortly before use, the XTT solution is mixed with the PMS solution in the ratio 50:1 (vol:vol). The cell plates are then incubated in the fumigation incubator for a further 3h and the optical density (OD490nm) is determined in a photometer. By means of the OD490nm determined, the percentage inhibition is calculated relative to the control and plotted semilogarithmically in the form of a concentration-action curve. The EC50 is calculated by means of a regression analysis from the concentration-action curve using the program Graphpad Prism.

The subject of data set [2] is lung carcinoma cell line NCI-H460. Kind of data set: XTT proliferation assay, NCI-H460. Format: cell-based. The settings on record: Homo sapiens; NCI-H460 cells, 45 h incubation.
From the text: as §1, §2
(In general: Tetrazolium dyes change colour on reduction, which living cells bring about.)

The next data set relates to bovine tubulin. Nature of the data set: Tubulin polymerization assay. The settings on record: bovine tubulin with 30% MAPs; average of two independent experiments. Format: biochemical. The protocol:
Selected substances were tested for inhibition of the polymerization of bovine tubulin in an in-vitro test. In this test, tubulin purified by cycles of polymerization and depolymerization is employed, which is polymerized by addition of GTP and warming. In Table 2, the EC50 values of the inhibition of polymerization of tubulin with 30% associated proteins (MAPs) and of MAP-free tubulin are indicated.
The assay is carried out based on the method of Bollag et. al. Lyophilized bovine tubulin (cytoskeleton, ML113 tubulin 30% MAPs, TL238 tubulin MAP free) is dissolved in a concentration of 2 mg/ml (ML113 in 80 mM PIPES, 0.5 mM EGTA, 2 mM MgCl2, pH6.9, 1 mM GTP) or 5 mg/ml (TL238 in 80 mM PIPES, 1 mM EGTA, 0.5 mM MgCl2, 20% (v:v) glycerol pH 6.9, 1 mM GTP). The test substances are diluted in 10% DMSO (v:v) and 5 μl of the dilutions are transferred to a 96-well microtiter plate (Nunc, half area plate). After addition of 45 μl of the tubulin solution, the polymerization is determined at 340 nm in a Spectramax 190 microtiter plate reader (Molecular devices) by means of a kinetics program at 30 sec intervals over a period of 20 min. The resulting area under curve values are used for the calculation of the inhibition with respect to the untreated control and plotted semilogarithmically in the form of a concentration-action curve. The EC50 is calculated by means of a regression analysis from the concentration-action curve using the program Graphpad Prism.

Data set [3] concerns RKOp27 human colon carcinoma cell line. Nature of the data set: Cell cycle analysis by means of the RKOp27 model (XTT). The format is cell-based. The note with it: RKOp27, 45 h, RKOp27 cells, read-out: XTT proliferation assay, EC50, RKOP27.
From the text: as §1, §2
The assay is carried out in 96-well plates. […] By comparison of the activity on induced and noninduced cells, conclusions on the mechanism of action (cell cycle specificity) of the therapeutics can be drawn. […] are inoculated in approximately three-fold higher cell count, since division no longer takes place during the assay in comparison with uninduced cells (20000 cells/well induced, 6250 cells/well not induced). The controls are untreated cells (+/−induction). The induction is carried out with 3 μM muristerone A On the 1st day, the cells are exposed (+/− muristerone A) and incubated at 37° C. for 24h. […]

Data set [4] deals with human cervical carcinoma cell line KB/HeLa. Kind of data set: XTT proliferation assay, KB/HeLa. The format is cell-based. The settings on record: KB/HeLa cells, 45 h incubation.
From the text: as §1, §2

The subject of data set [5] is human glioblastoma cell line SF-268. Kind of data set: XTT proliferation assay, SF-268. The settings on record: SF-268 cells, 45 h incubation. Format: cell-based.
From the text: as §1, §2

Where [6] appears, read: p27kip1 induced with 3 μM muristerone A (arrested).
[7] abbreviates: without expression of p27kip1 (not induced).

The melting point is the temperature, or range, at which the solid turns liquid. Compound `COc1cccc(N2CCN(C(=O)C3c4ccccc4-c4ccccc43)CC2)c1` [Compound 10, (9H-Fluoren-9-yl)-[4-(3-methoxyphenyl)piperazin-1-yl]methanone] came in with a melting point of 162 to 163 °C. Moreover, the EC50 in data set [1] worked out at 0.082 µg/mL (≈ 0.213 µM). In data set [2], this compound showed an EC50 of 0.085 µg/mL (≈ 0.221 µM). In addition, the “Inhibition of tubulin polymerization, EC50, with 30% MAPs” value in the data set with bovine tubulin was found to be 1.18 µg/mL. Moreover, the EC50 in data set [3] (setting [6]) was over 3.16 µg/mL. In addition, the EC50 in data set [3] (setting [7]) turned out to be 0.082 µg/mL (≈ 0.213 µM). In data set [4], this compound displayed an EC50 of 0.166 µg/mL (≈ 0.432 µM). In data set [5], this compound returned an EC50 of 0.094 µg/mL (≈ 0.244 µM).
For `COc1cccc(N2CCN(C(=O)C3c4ccccc4Oc4ccccc43)CC2)c1` [Compound 13, [4-(3-Methoxyphenyl)piperazin-1-yl]-(9H-xanthen-9-yl)methanone], the melting point was determined as 110 °C. For the same compound, in data set [1], the EC50 is 0.293 µg/mL (≈ 0.732 µM). In data set [2], this compound displayed an EC50 of 0.29 µg/mL (≈ 0.724 µM). Further, the “Inhibition of tubulin polymerization, EC50, with 30% MAPs” value in the data set with bovine tubulin amounted to 0.73 µg/mL. Also, in data set [3] (setting [6]), the EC50 was over 3.16 µg/mL. Also, in data set [3] (setting [7]), the EC50 worked out at 0.193 µg/mL (≈ 0.482 µM). The same compound gave an EC50 in data set [4] of 0.628 µg/mL (≈ 1.57 µM). Besides, in data set [5], the EC50 worked out at 0.408 µg/mL (≈ 1.02 µM).
